The text below walks through data of US20240254119A1 (THIRD HARMONIC BIO, INC., priority 2022, published 2024).

The test deals with T1, wtKIT (Homo sapiens, UniProt P10721).
T1 construct: 1888289AM in the reaction mixtures
The test can be described thus: HTRF biochemical assay, wtKIT (phosphorylation of a peptide substrate). The conditions noted are these: Table 4. The method, then: Exemplary compounds were tested for ability to inhibit the phosphorylation of a peptide substrate by the tyrosine kinase wt KIT, PDGFRα, or CSF-1R. Assay procedures and results are described below.
Enzyme, substrate, and cofactors (ATP and Mn^2+) are combined in a well of a microtiter plate and incubated for 3 hours at 25° C. At the end of the incubation, the reaction is quenched by the addition of an EDTA-containing buffer.
The substrate used in the CSF-1R and PDGFRα assay is FAM-[…]-CONH2 (FAM is carboxyfluorescein). Peptide should be >95% purity. The substrate for the KIT assay is FAM-[…]-NH2.
• 1. To a well of a 384-wellplate add 5 μL of 2× enzyme buffer (or control). • 2. Add 100 nL of 100× compound. Enzyme and compound may be pre-incubated at this time if desired. • 3. Add 5 μL of 2× substrate buffer. • 4. Incubate plate at 25° C. for 3 hours. • 5. Add 10 uL of anti-phosphotyrosine antibody buffer. • 6. Read plate in BioTek Synergy Reader. Reaction Conditions for wtKIT Assay
• 100 mM HEPES, pH 7.5 0.1% BSA • 0.01% Triton x-100 • 1 mM DTT • 10 mM MnCl2 • 10 μM Sodium Orthovanadate • 10 μM Beta-Glycerophosphate • 400 μM ATP • 1% DMSO (from compound) • 1 μM FAM-[…]-CONH2, 5.0 nM wtKIT Enzyme (1888289AM)* • *Specific activity may vary from lot to lot. Enzyme concentration may need to be adjusted to yield 10-20% conversion of substrate to product.

T1 sequence (P10721 26-976): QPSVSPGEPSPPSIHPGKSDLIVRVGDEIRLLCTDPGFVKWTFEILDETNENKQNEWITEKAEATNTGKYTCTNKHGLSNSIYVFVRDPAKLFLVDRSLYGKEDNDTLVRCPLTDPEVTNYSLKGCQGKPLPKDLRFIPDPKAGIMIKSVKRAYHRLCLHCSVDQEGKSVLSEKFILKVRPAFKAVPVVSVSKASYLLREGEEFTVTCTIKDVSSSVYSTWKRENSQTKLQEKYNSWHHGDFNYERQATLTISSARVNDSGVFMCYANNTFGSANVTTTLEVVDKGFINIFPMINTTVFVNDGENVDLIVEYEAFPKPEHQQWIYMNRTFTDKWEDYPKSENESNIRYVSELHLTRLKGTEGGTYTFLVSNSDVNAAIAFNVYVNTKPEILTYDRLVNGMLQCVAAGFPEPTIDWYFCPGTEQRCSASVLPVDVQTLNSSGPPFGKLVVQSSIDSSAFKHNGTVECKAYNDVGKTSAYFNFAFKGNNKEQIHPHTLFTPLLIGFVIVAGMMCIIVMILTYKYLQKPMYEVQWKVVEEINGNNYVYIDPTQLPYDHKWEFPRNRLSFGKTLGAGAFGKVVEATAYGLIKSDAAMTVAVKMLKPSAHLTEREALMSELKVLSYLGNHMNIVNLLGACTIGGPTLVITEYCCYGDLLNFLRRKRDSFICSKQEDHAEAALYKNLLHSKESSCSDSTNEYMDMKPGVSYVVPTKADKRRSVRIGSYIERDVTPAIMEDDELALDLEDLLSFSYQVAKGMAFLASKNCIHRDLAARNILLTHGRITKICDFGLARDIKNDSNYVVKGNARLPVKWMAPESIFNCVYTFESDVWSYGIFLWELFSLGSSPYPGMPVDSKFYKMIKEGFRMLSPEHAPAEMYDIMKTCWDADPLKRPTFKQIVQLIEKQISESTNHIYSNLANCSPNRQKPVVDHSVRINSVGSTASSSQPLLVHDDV

In general, IC50 refers to the concentration at which inhibition is half-maximal. In the case of `Cc1ccc(-c2noc([C@H]3C[C@@H]3F)n2)cc1NC(=O)c1cnc2cc(C3CC(O)C3)ccn12` (stereo partly drawn) [Compound I-478, N-[5-[5-[(1R,2S)-2-fluorocyclopropyl]-1,2,4-oxadiazol-3-yl]-2-methyl-phenyl]-7-(3-hydroxycyclobutyl)imidazo[1,2-a]pyridine-3-carboxamide], the IC50 was at most 50 nM.
Consider `Cc1ccc(-c2noc([C@H]3C[C@@H]3F)n2)cc1NC(=O)c1cnc2c(F)c(COCC(C)(C)O)ccn12` [Compound I-473], for which the concentration for half-maximal inhibition (IC50) was 50 to 500 nM.
Take `Cc1ccc(-c2noc([C@H]3C[C@@H]3F)n2)cc1NC(=O)c1cnn2ccc(OC(C)C)cc12` [Compound I-493, N-(5-(5-((1R,2S)-2-fluorocyclopropyl)-1,2,4-oxadiazol-3-yl)-2-methylphenyl)-5-isopropoxypyrazolo[1,5-a]pyridine-3-carboxamide]: the IC50 is at most 50 nM.
Take `CCOc1ccn2c(C(=O)Nc3cc(-c4noc(C[C@H](O)C(F)F)n4)ccc3C)cnc2c1` [Compound I-566, (S)—N-(5-(5-(3,3-difluoro-2-hydroxypropyl)-1,2,4-oxadiazol-3-yl)-2-methylphenyl)-7-ethoxyimidazo[1,2-a]pyridine-3-carboxamide]: the concentration for half-maximal inhibition (IC50) is at most 50 nM.
Take `Cc1ccc(-c2noc(C3CC(F)(F)C3)n2)cc1NC(=O)c1cnn2ccccc12` [Compound I-518, methyl N-(5-(5-(3,3-difluorocyclobutyl)-1,2,4-oxadiazol-3-yl)-2-methylphenyl)pyrazolo[1,5-a]pyridine-3-carboxamide]: the IC50 was at most 50 nM.
The result for `Cc1ccn2c(C(=O)Nc3cc(-c4noc(-c5ccnnc5)n4)ccc3C)cnc2c1` [Compound I-546] reads 50 to 500 nM; that for `CCC(O)Cc1nc(-c2ccc(C)c(NC(=O)c3cnc4ccccn34)c2)no1` (stereo not shown) [Compound I-526], at most 50 nM.
As for `Cc1ccc(-c2noc(C[C@H](C)O)n2)cc1NC(=O)c1cnc2cc(Cl)ccn12` [Compound I-602], the half-inhibitory concentration (IC50) was at most 50 nM.
For `Cc1ccc(-c2ncon2)cc1NC(=O)c1cnc2cc(-c3csc(CO)n3)ccn12` [Compound I-685], the IC50 was at most 50 nM.
On to `Cc1ccc(-c2noc([C@H]3C[C@@H]3F)n2)cc1NC(=O)c1cnc2ccc(COCCO)cn12` [Compound I-453, N-[5-[5-[(1R,2S)-2-fluorocyclopropyl]-1,2,4-oxadiazol-3-yl]-2-methyl-phenyl]-6-(2-hydroxyethoxymethyl)imidazo[1,2-a]pyridine-3-carboxamide], for which the 50% inhibitory concentration (IC50) was at most 50 nM.
The result for `Cc1ccc(-c2noc(C[C@H](O)C(F)F)n2)cc1NC(=O)c1cnc2cc(COCc3nn[nH]n3)ccn12` [Compound I-597, (S)-7-(((2H-tetrazol-5-yl)methoxy)methyl)-N-(5-(5-(3,3-difluoro-2-hydroxypropyl)-1,2,4-oxadiazol-3-yl)-2-methylphenyl)imidazo[1,2-a]pyridine-3-carboxamide] reads at most 50 nM; that for `Cc1ccc(-c2noc(C[C@H](O)C(F)F)n2)cc1NC(=O)c1cnc2cc(OCCCC(C)(C)O)ccn12` [Compound I-580, (S)—N-(5-(5-(3,3-difluoro-2-hydroxypropyl)-1,2,4-oxadiazol-3-yl)-2-methylphenyl)-7-((4-hydroxy-4-methylpentyl)oxy)imidazo[1,2-a]pyridine-3-carboxamide], at most 50 nM; that for `Cc1ccc(-c2ncon2)cc1NC(=O)c1cnc2cc(N(C)C)ccn12` [Compound I-718], at most 50 nM.
On to `Cc1ccc(-c2noc([C@H]3C[C@@H]3F)n2)cc1NC(=O)c1cnc2cc3c(cn12)C(C)OC3` (single isomer, unassigned) [Compound I-483, (4R*)—N-[5-[5-[(1R,2S)-2-fluorocyclopropyl]-1,2,4-oxadiazol-3-yl]-2-methyl-phenyl]-4-methyl-5-oxa-1,10-diazatricyclo[7.3.0.0^3,7]dodeca-2,7,9,11-tetraene-12-carboxamide], for which the IC50 was at most 50 nM.
Turning to `Cc1ccc(-c2ncon2)cc1NC(=O)c1cnc2cc(N3CCCCC3)ccn12` [Compound I-712], the half-inhibitory concentration (IC50) was 50 to 500 nM.
In the case of `Cc1ccc(-c2noc([C@H]3C[C@@H]3F)n2)cc1NC(=O)c1cnc2cc(COCC(C)O)ccn12` (single isomer, unassigned) [Compound I-468, N-[5-[5-[(1R,2S)-2-fluorocyclopropyl]-1,2,4-oxadiazol-3-yl]-2-methyl-phenyl]-7-[[(2R*)-2-hydroxypropoxy]methyl]imidazo[1,2-a]pyridine-3-carboxamide], the 50% inhibitory concentration (IC50) is at most 50 nM.
For `Cc1ccc(-c2noc(C[C@H](O)C(F)F)n2)cc1NC(=O)c1cnc2cc(COCc3ccn[nH]3)ccn12` [Compound I-586, (S)-7-(((1H-pyrazol-5-yl)methoxy)methyl)-N-(5-(5-(3,3-difluoro-2-hydroxypropyl)-1,2,4-oxadiazol-3-yl)-2-methylphenyl)imidazo[1,2-a]pyridine-3-carboxamide], the IC50 is at most 50 nM.
For the compound `Cc1ccc(-c2noc([C@H]3C[C@@H]3F)n2)cc1NC(=O)c1cnn2cc(F)ccc12` [Compound I-486, 6-fluoro-N-(5-(5-((1R,2S)-2-fluorocyclopropyl)-1,2,4-oxadiazol-3-yl)-2-methylphenyl)pyrazolo[1,5-a]pyridine-3-carboxamide], the IC50 was at most 50 nM.
As for `COCc1ccn2c(C(=O)Nc3cc(-c4ncon4)ccc3C)cnc2c1` [Compound I-677], the IC50 was in the range of 50 to 500 nM.
The result for `Cc1ccc(-c2noc([C@H]3C[C@@H]3F)n2)cc1NC(=O)c1cnc2cc(CC(C)(C)O)ccn12` [Compound I-460] reads 50 to 500 nM; that for `COc1ccn2c(C(=O)Nc3cc(-c4noc(-c5ccc(C)cn5)n4)ccc3C)cnc2c1` [Compound I-556, 7-methoxy-N-(2-methyl-5-(5-(5-methylpyridin-2-yl)-1,2,4-oxadiazol-3-yl)phenyl)imidazo[1,2-a]pyridine-3-carboxamide], at most 50 nM.
Consider `CCc1nc(-c2ccc(C)c(NC(=O)c3cnc4cc(COCCO)ccn34)c2)no1` [Compound I-754], for which the half-inhibitory concentration (IC50) was at most 50 nM.
Turning to `Cc1ccc(-c2noc(C[C@H](O)C(F)F)n2)cc1NC(=O)c1cnc2cc(COCc3c[nH]cn3)ccn12` [Compound I-585, (S)-7-(((1H-imidazol-4-yl)methoxy)methyl)-N-(5-(5-(3,3-difluoro-2-hydroxypropyl)-1,2,4-oxadiazol-3-yl)-2-methylphenyl)imidazo[1,2-a]pyridine-3-carboxamide], the half-inhibitory concentration (IC50) is at most 50 nM.
As to `COCC(O)Cc1nc(-c2ccc(C)c(NC(=O)c3cnc4ccccn34)c2)no1` (stereo not shown) [Compound I-528], the IC50 is 50 to 500 nM.
Take `COc1ccn2c(C(=O)Nc3cc(-c4noc(N5CC(F)(F)C5)n4)ccc3C)cnc2c1` [Compound I-603, N-(5-(5-(3,3-difluoroazetidin-1-yl)-1,2,4-oxadiazol-3-yl)-2-methylphenyl)-7-methoxyimidazo[1,2-a]pyridine-3-carboxamide]: the IC50 was at most 50 nM.
The value for `Cc1nc(-c2ccc(C)c(NC(=O)c3cnc4cc(Cl)ccn34)c2)no1` [Compound I-675] was at most 50 nM.
`Cc1ccc(-c2noc(C(C)O)n2)cc1NC(=O)c1cnc2cc(F)ccn12` (stereo not shown) [Compound I-741]: the IC50 was 500 to 5000 nM.
`COCc1ccn2c(C(=O)Nc3cc(-c4noc([C@@H]5CC6(CC6)CN5)n4)ccc3C)cnc2c1` [Compound I-638, N-[5-[5-[(6S)-5-azaspiro[2.4]heptan-6-yl]-1,2,4-oxadiazol-3-yl]-2-methyl-phenyl]-7-(methoxymethyl)imidazo[1,2-a]pyridine-3-carboxamide]: the IC50 is at most 50 nM.
The result for `Cc1ccc(-c2noc(-c3ccccn3)n2)cc1NC(=O)c1cnc2cc(COCC(C)(C)O)ccn12` [Compound I-573] reads 50 to 500 nM; that for `CCc1nc(-c2ccc(C)c(NC(=O)c3cnn4cc(-c5ccn(C)n5)ccc34)c2)no1` [Compound I-722], at most 50 nM.
With `Cc1ccc(-c2noc([C@H]3C[C@@H]3F)n2)cc1NC(=O)c1cnc2cc(COCCS(C)(=O)=O)ccn12` [Compound I-454, N-[5-[5-[(1R,2S)-2-fluorocyclopropyl]-1,2,4-oxadiazol-3-yl]-2-methyl-phenyl]-7-(2-methylsulfonylethoxymethyl)imidazo[1,2-a]pyridine-3-carboxamide], the IC50 was at most 50 nM.
In the case of `Cc1ccc(-c2noc(C[C@H](O)C(F)F)n2)cc1NC(=O)c1cnc2cc(O)ccn12` [Compound I-574, (S)—N-(5-(5-(3,3-difluoro-2-hydroxypropyl)-1,2,4-oxadiazol-3-yl)-2-methylphenyl)-7-hydroxyimidazo[1,2-a]pyridine-3-carboxamide], the IC50 was at most 50 nM.
Consider `CNCCOCc1ccn2c(C(=O)Nc3cc(-c4noc(C[C@H](O)C(F)F)n4)ccc3C)cnc2c1` [Compound I-593], for which the half-inhibitory concentration (IC50) fell in the range of 50 to 500 nM.
Turning to `Cc1ccc(-c2nc(-c3ccc(C)c(NC(=O)c4cnc5cc(C)ccn45)c3)no2)nc1` [Compound I-544], the 50% inhibitory concentration (IC50) lay in the range of 50 to 500 nM.
